# Read-outs that look alike come from different tables or passages of the source.
# Key:
# Assay type in all cases: cell-based
# E. faecalis = E. faecalis strain EFS002
# P. aeruginosa = details: for Peptide MIC values: agarose dilution
# [1] = system: inherently resistant microorganisms; experiment: microbe, parasite or virus in culture; details: S. aureus
# [2] = system: microorganisms with acquired resistance; experiment: microbe, parasite or virus in culture; details: for Peptide MIC Alone: Tobramycin section; for FIC: peptide + Tobramycin
# bacterial isolates = experiment: microbe, parasite or virus in culture
# E. coli = details: for Peptide MIC values: agarose dilution
# S. aureus = details: for Peptide MIC values: agarose dilution
# S. marcescens = details: for Peptide MIC values: agarose dilution
# E. faecium = system: E. faecium
# H. influenzae = experiment: Agarose dilution assay (MIC); details: H. influenzae strain HIN002
# S. pneumoniae = experiment: Agarose dilution assay (MIC); details: for Peptide MIC values: agarose dilution
# P. vulgaris = experiment: Agarose dilution assay (MIC); details: agarose dilution; P. vulgaris ATCC 13315
# [3] = S. aureus SA025 (also SA025 MRSA)
sequence,measurement,setting,value
ILKKWPWWPWK [MBI 11G13CN],MIC,E. faecalis,64 µg/mL
same,MIC,P. aeruginosa; P. aeruginosa strain PA004,>128 µg/mL
same,Peptide MIC values,P. aeruginosa; P. aeruginosa ATCC 27853,>128 µg/mL
same,Peptide MIC values,P. aeruginosa; P. aeruginosa NCTC 10662,>128 µg/mL
same,Peptide MIC + Tobramycin,[1],2 µg/mL
same,Peptide MIC Alone,[1]; Tobramycin section,4 µg/mL
same,FIC,[1]; peptide + Tobramycin,0.50
same,Peptide MIC + Tobramycin,[2]; A. baumannii ABI001,32 µg/mL
same,Tobramycin MIC + Peptide,[2]; A. baumannii ABI001,4 µg/mL
same,Peptide MIC Alone,[2]; A. baumannii ABI001,128 µg/mL
same,Peptide MIC,"[2]; E. faecium, combination with Mupirocin, in µg/mL",32
same,Peptide MIC + Tobramycin,[2]; P. aeruginosa PA022,16 µg/mL
same,Tobramycin MIC + Peptide,[2]; P. aeruginosa PA022,4 µg/mL
same,Peptide MIC Alone,[2]; P. aeruginosa PA022,>128 µg/mL
same,FIC,[2]; A. baumannii ABI001,0.50
same,FIC,[2]; P. aeruginosa PA022,0.56
same,Peptide MIC + Tobramycin,bacterial isolates; A. baumannii ABI001,32 µg/mL
same,Tobramycin MIC + Peptide,bacterial isolates; A. baumannii ABI001,4 µg/mL
same,Peptide MIC Alone,"bacterial isolates; A. baumannii ABI001, Tobramycin section",128 µg/mL
same,Mupirocin MIC + Peptide,bacterial isolates; E. coli ECO5,30 µg/mL
same,Peptide MIC + Mupirocin,bacterial isolates; E. coli ECO5,8 µg/mL
same,Peptide MIC Alone,"bacterial isolates; E. coli ECO5, Mupirocin section",64 µg/mL
same,Mupirocin MIC + Peptide,bacterial isolates; E. coli SBECO2,30 µg/mL
same,Peptide MIC + Mupirocin,bacterial isolates; E. coli SBECO2,8 µg/mL
same,Peptide MIC Alone,"bacterial isolates; E. coli SBECO2, Mupirocin section",64 µg/mL
same,Peptide MIC + Tobramycin,bacterial isolates; P. aeruginosa PA022,16 µg/mL
same,Tobramycin MIC + Peptide,bacterial isolates; P. aeruginosa PA022,4 µg/mL
same,Peptide MIC Alone,"bacterial isolates; P. aeruginosa PA022, Tobramycin section",>128 µg/mL
same,Peptide MIC + Tobramycin,bacterial isolates; [3],2 µg/mL
same,Tobramycin MIC + Peptide,bacterial isolates; [3],0.125 µg/mL
same,Peptide MIC Alone,"bacterial isolates; S. aureus SA025 (also SA025 MRSA), Tobramycin section",4 µg/mL
same,Peptide MIC + Tobramycin,bacterial isolates; S. maltophilia SMA029,0.125 µg/mL
same,Tobramycin MIC + Peptide,bacterial isolates; S. maltophilia SMA029,64 µg/mL
same,Peptide MIC Alone,"bacterial isolates; S. maltophilia SMA029, Tobramycin section",>128 µg/mL
same,Peptide MIC + Tobramycin,bacterial isolates; S. maltophilia SMA030,0.125 µg/mL
same,Tobramycin MIC + Peptide,bacterial isolates; S. maltophilia SMA030,64 µg/mL
same,Peptide MIC Alone,"bacterial isolates; S. maltophilia SMA030, Tobramycin section",>128 µg/mL
same,FIC,"bacterial isolates; peptide + Mupirocin, E. coli ECO5",0.43
same,FIC,"bacterial isolates; peptide + Mupirocin, E. coli SBECO2",0.16
same,FIC,"bacterial isolates; peptide + Tobramycin, A. baumannii ABI001",0.50
same,FIC,"bacterial isolates; peptide + Tobramycin, P. aeruginosa PA022",0.56
same,FIC,"bacterial isolates; peptide + Tobramycin, S. aureus SA025 (also SA025 MRSA)",0.50
same,FIC,"bacterial isolates; peptide + Tobramycin, S. maltophilia SMA029",0.50
same,FIC,"bacterial isolates; peptide + Tobramycin, S. maltophilia SMA030",0.50
same,MIC,E. coli; E. coli strain ECO002,32 µg/mL
same,MIC,E. coli; E. coli strain SBECO3,32 µg/mL
same,Peptide MIC values,E. coli; E. coli ATCC 25922,64 µg/mL
same,Peptide MIC values,E. coli; E. coli ESS,32 µg/mL
same,Peptide MIC values,E. coli; E. coli NCTC 10418,16 µg/mL
same,MIC,S. aureus; S. aureus strain SA004,4 µg/mL
same,Peptide MIC values,S. aureus; S. aureus ATCC 29213,1 µg/mL
same,Peptide MIC values,S. aureus; S. aureus MRSA9,8 µg/mL
same,Peptide MIC values,S. aureus; S. aureus MRSA13,64 µg/mL
same,Peptide MIC values,S. aureus; S. aureus MRSA17,16 µg/mL
same,Peptide MIC values,S. aureus; S. aureus SA206,32 µg/mL
same,MIC,S. marcescens; S. marcescens strain SBSM1,>128 µg/mL
same,Peptide MIC values,S. marcescens; S. marcescens SM76,>128 µg/mL
same,Peptide MIC values,S. marcescens; S. marcescens SM82,>128 µg/mL
same,MIC,E. faecium; E. faecium strain EFM002,16 µg/mL
same,Peptide MIC values,E. faecium; agarose dilution,32 µg/mL
same,MIC,H. influenzae,>128 µg/mL
same,MIC,S. pneumoniae; S. pneumoniae strain SBSPN3,128 µg/mL
same,Peptide MIC values,S. pneumoniae; S. pneumoniae 406LE8,128 µg/mL
same,Peptide MIC values,S. pneumoniae; S. pneumoniae 60120,>128 µg/mL
same,Peptide MIC values,S. pneumoniae; S. pneumoniae ATCC 49619,128 µg/mL
same,Peptide MIC values,P. vulgaris,>128 µg/mL

# Source: US20020035061A1, “COMPOSITIONS AND METHODS FOR TREATING INFECTIONS USING CATIONIC PEPTIDES ALONE OR IN COMBINATION WITH ANTIBIOTICS” (priority 1996, published 2002)
